Experimental data published in US6737383B1, “Herbicidal oxadiazolidines” (priority 1999, dated 2004).

How the values were obtained:
bedstraw = test: Test B pre/postemergence bedstraw; format: in vivo, Galium aparine; settings: Postemergence
Summary of the method: (§1)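 Test chemicals in a non-phytotoxic solvent mixture with surfactant were sprayed preemergence onto planted seeds and postemergence onto plants 2 to 18 cm tall (1- to 4-leaf stage). After twelve to sixteen days in a greenhouse, injury was visually rated against untreated controls from 0 (no effect) to 10 (complete control).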

blackgrass = test: Test B pre/postemergence blackgrass; format: in vivo, Alopecurus myosuroides
Summary of the method: as §1

surinam grass = test: Test B pre/postemergence surinam grass; format: in vivo, Brachiaria decumbens
Summary of the method: as §1

corn = test: Test B pre/postemergence corn; format: in vivo, Zea mays
Summary of the method: as §1

giant foxtail = test: Test B pre/postemergence giant foxtail; format: in vivo, Setaria faberii
Summary of the method: as §1

morningglory = test: Test B pre/postemergence morningglory; format: in vivo, Ipomoea hederacea
Summary of the method: as §1

pigweed = test: Test B pre/postemergence pigweed; format: in vivo, Amaranthus retroflexus
Summary of the method: as §1

rape = test: Test B pre/postemergence rape; format: in vivo, Brassica napus
Summary of the method: as §1

soybean = test: Test B pre/postemergence soybean; format: in vivo, Glycine max
Summary of the method: as §1

sugar beet = test: Test B pre/postemergence sugar beet; format: in vivo, Beta vulgaris
Summary of the method: as §1

velvetleaf = test: Test B pre/postemergence velvetleaf; format: in vivo, Abutilon theophrasti
Summary of the method: as §1

purple nutsedge = test: Test B pre/postemergence purple nutsedge; format: in vivo, Cyperus rotundus
Summary of the method: as §1

rice = test: Test B flood test rice; format: in vivo, Oryza sativa
Summary of the method: (§2)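 Plants were grown to the 2-leaf stage before treatment with test chemical, then held in a greenhouse for twelve to sixteen days. Injury was visually rated against untreated controls on a 0–10 scale, where 0 is no effect and 10 is complete control.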

smallflower flatsedge = test: Test B flood test smallflower flatsedge; format: in vivo, Cyperus difformis
Summary of the method: as §2

duck salad = test: Test B flood test duck salad; format: in vivo, Heteranthera limosa
Summary of the method: as §2

bamyardgrass = test: Test B flood test barnyardgrass; format: in vivo, Echinochloa crus-galli
Summary of the method: as §2

[1] = Postemergence, Rate 62 g/ha, scale 0 to 10, 0 is no effect, 10 is complete control
[2] = Postemergence, Rate 125 g/ha, scale of 0 to 10 where 0 is no effect and 10 is complete control
[3] = Postemergence, Rate 250 g/ha, scale of 0 to 10, 0 is no effect, 10 is complete control
[4] = Postemergence, Rate 500 g/ha, scale of 0 to 10 where 0 is no effect and 10 is complete control
[5] = Preemergence, Rate 62 g/ha, scale 0 to 10 (0 no effect, 10 complete control)
[6] = Preemergence, Rate 125 g/ha, scale of 0 to 10 where 0 is no effect and 10 is complete control
[7] = Preemergence, Rate 250 g/ha, scale 0 to 10 (0 no effect, 10 complete control)
[8] = Preemergence, Rate 500 g/ha, scale of 0 to 10 where 0 is no effect and 10 is complete control
[9] = Rate 62 g/ha, flood test species, Pre-emergence, visual evaluation after twelve to sixteen days
[10] = Rate 125 g/ha, under heading Pre-emergence, flood test species, visual evaluation after twelve to sixteen days
[11] = Rate 250 g/ha, Pre-emergence (flood test species), scale 0 to 10, 0 is no effect, 10 is complete control
[12] = Rate 500 g/ha, Pre-emergence section of Table B, 0 to 10 scale (0 no effect, 10 complete control)

## CCOC(Cn1c(=O)on(C(=O)N(c2ccccc2)C(C)C)c1=O)OCC [Compound 632]
bedstraw; Rate 62 g/ha, scale 0 to 10, 0 is no effect, 10 is complete control
  Plant response rating, Bedstraw: 0
bedstraw; Rate 125 g/ha, scale of 0 to 10 where 0 is no effect and 10 is complete control
  Plant response rating, Bedstraw: 0
bedstraw; Rate 250 g/ha, scale of 0 to 10, 0 is no effect, 10 is complete control
  Bedstraw plant response rating: 0
blackgrass; [1]
  Plant response rating, Blackgrass: 0
blackgrass; [2]
  Plant response rating, Blackgrass: 4
blackgrass; [3]
  Blackgrass plant response rating: 6
blackgrass; [4]
  Plant response rating, Blackgrass: 8
blackgrass; [5]
  Blackgrass plant response rating: 2
blackgrass; [6]
  Blackgrass plant response rating: 4
blackgrass; [7]
  Plant response rating, Blackgrass: 7
blackgrass; [8]
  Plant response rating, Blackgrass: 10
Surinam grass; [1]
  Plant response rating, B. signalgrass: 0
Surinam grass; [2]
  Plant response rating, B. signalgrass: 0
Surinam grass; [3]
  B. signalgrass plant response rating: 2
Surinam grass; [4]
  Plant response rating, B. signalgrass: 6
Surinam grass; [5]
  B. signalgrass plant response rating: 0
Surinam grass; [6]
  B. signalgrass plant response rating: 3
Surinam grass; [7]
  Plant response rating, B. signalgrass: 6
Surinam grass; [8]
  Plant response rating, B. signalgrass: 10
corn; [1]
  Plant response rating, Corn: 0
corn; [2]
  Plant response rating, Corn: 3
corn; [3]
  Corn plant response rating: 3
corn; [4]
  Plant response rating, Corn: 5
corn; [5]
  Corn plant response rating: 0
corn; [6]
  Corn plant response rating: 4
corn; [7]
  Plant response rating, Corn: 4
corn; [8]
  Plant response rating, Corn: 5
Giant foxtail; [1]
  Plant response rating, Giant foxtail: 3
Giant foxtail; [2]
  Plant response rating, Giant foxtail: 7
Giant foxtail; [3]
  Giant foxtail plant response rating: 8
Giant foxtail; [4]
  Plant response rating, Giant foxtail: 9
Giant foxtail; [5]
  Giant foxtail plant response rating: 8
Giant foxtail; [6]
  Giant foxtail plant response rating: 10
Giant foxtail; [7]
  Plant response rating, Giant foxtail: 10
Giant foxtail; [8]
  Plant response rating, Giant foxtail: 10
morningglory; [1]
  Plant response rating, Morningglory: 1
morningglory; [2]
  Plant response rating, Morningglory: 1
morningglory; [3]
  Morningglory plant response rating: 2
morningglory; [4]
  Plant response rating, Morningglory: 10
morningglory; [5]
  Morningglory plant response rating: 0
morningglory; [6]
  Morningglory plant response rating: 0
morningglory; [7]
  Plant response rating, Morningglory: 4
morningglory; [8]
  Plant response rating, Morningglory: 5
pigweed; [1]
  Plant response rating, Redroot pigweed: 0
pigweed; [2]
  Plant response rating, Redroot pigweed: 0
pigweed; [3]
  Redroot pigweed plant response rating: 0
pigweed; [5]
  Redroot pigweed plant response rating: 0
pigweed; [6]
  Redroot pigweed plant response rating: 0
pigweed; [7]
  Plant response rating, Redroot pigweed: 6
pigweed; [8]
  Plant response rating, Redroot pigweed: 10
rape; [1]
  Plant response rating, Rape: 0
rape; [2]
  Plant response rating, Rape: 0
rape; [3]
  Rape plant response rating: 0
rape; [4]
  Plant response rating, Rape: 0
rape; [5]
  Rape plant response rating: 0
rape; [6]
  Rape plant response rating: 0
rape; [7]
  Plant response rating, Rape: 0
rape; [8]
  Plant response rating, Rape: 4
soybean; [1]
  Plant response rating, Soybean: 1
soybean; [2]
  Plant response rating, Soybean: 2
soybean; [3]
  Soybean plant response rating: 4
soybean; [5]
  Soybean plant response rating: 0
soybean; [6]
  Soybean plant response rating: 0
soybean; [7]
  Plant response rating, Soybean: 0
soybean; [8]
  Plant response rating, Soybean: 0
Sugar beet; [1]
  Plant response rating, Sugarbeets: 0
Sugar beet; [2]
  Plant response rating, Sugarbeets: 0
Sugar beet; [3]
  Sugarbeets plant response rating: 0
Sugar beet; [5]
  Sugarbeets plant response rating: 0
Sugar beet; [6]
  Sugarbeets plant response rating: 0
Sugar beet; [7]
  Plant response rating, Sugarbeets: 0
Sugar beet; [8]
  Plant response rating, Sugarbeets: 0
velvetleaf; [1]
  Plant response rating, Velvetleaf: 0
velvetleaf; [2]
  Plant response rating, Velvetleaf: 0
velvetleaf; [3]
  Velvetleaf plant response rating: 0
velvetleaf; [5]
  Velvetleaf plant response rating: 0
velvetleaf; [6]
  Velvetleaf plant response rating: 1
velvetleaf; [7]
  Plant response rating, Velvetleaf: 6
velvetleaf; [8]
  Plant response rating, Velvetleaf: 7
Purple nutsedge; [1]
  Plant response rating, Nutsedge: 0
Purple nutsedge; [2]
  Plant response rating, Nutsedge: 0
Purple nutsedge; [3]
  Nutsedge plant response rating: 0
Purple nutsedge; [5]
  Nutsedge plant response rating: 0
Purple nutsedge; [6]
  Nutsedge plant response rating: 0
Purple nutsedge; [7]
  Plant response rating, Nutsedge: 0
Purple nutsedge; [8]
  Plant response rating, Nutsedge: 0
rice; [9]
  Plant response rating, Rice (0 to 10 scale, 0 is no effect, 10 is complete control): 0
rice; [10]
  Rice plant response rating (0 to 10 scale, 0 is no effect, 10 is complete control): 0
rice; [11]
  Rice plant response rating: 0
rice; [12]
  Rice plant response rating: 0
Smallflower flatsedge; [9]
  Plant response rating, S. Flatsedge (0 to 10 scale, 0 is no effect, 10 is complete control): 0
Smallflower flatsedge; [10]
  S. Flatsedge plant response rating (0 to 10 scale, 0 is no effect, 10 is complete control): 0
Smallflower flatsedge; [11]
  S. Flatsedge plant response rating: 0
Smallflower flatsedge; [12]
  S. Flatsedge plant response rating: 0
Duck salad; [9]
  Plant response rating, Ducksalad (0 to 10 scale, 0 is no effect, 10 is complete control): 0
Duck salad; [10]
  Ducksalad plant response rating (0 to 10 scale, 0 is no effect, 10 is complete control): 0
Duck salad; [11]
  Ducksalad plant response rating: 0
Duck salad; [12]
  Ducksalad plant response rating: 0
bamyardgrass; [9]
  Plant response rating, Barnyardgrass (0 to 10 scale, 0 is no effect, 10 is complete control): 0
bamyardgrass; [10]
  Barnyardgrass plant response rating (0 to 10 scale, 0 is no effect, 10 is complete control): 0
bamyardgrass; [11]
  Barnyardgrass plant response rating: 0
bamyardgrass; [12]
  Barnyardgrass plant response rating: 0
